Test results from publication PMC12846677 (Viruses, 2025).
Read-outs that look alike come from different tables or passages of the source.

Key:
HIV-1IIIB [1] = assay: Combined antiviral activity assay (p24 ELISA, CompuSyn); format: cell-based
HIV-1KIZ011 (CRF07_BC) = assay: microbe, parasite or virus in culture; details: Human immunodeficiency virus 1, PBMC
[2] = Cytotoxicity MTT assay in PBMCs; format: cell-based; details: human, peripheral blood mononuclear cells (PBMCs), PBMC
HIV-1IIIB [3] = assay: HIV-1IIIB-induced cytopathic effect (syncytia counting) in C8166 cells; details: Human immunodeficiency virus 1, C8166
HIV-1_4755-5 = assay: microbe, parasite or virus in culture; details: Human immunodeficiency virus 1, C8166
NL4-3 = assay: microbe, parasite or virus in culture; format: cell-based; details: Human immunodeficiency virus 1, NL43; NL4-3, p24
[4] = system: pNL4-3gp41(36G) V38A, N42T; details: C8166, p24
HIV-1IIIB [5] = assay: microbe, parasite or virus in culture; format: cell-based; details: Human immunodeficiency virus 1, MT4, MTT
[6] = Cytotoxicity MTT assay in C8166 cells; format: cell-based; details: human
NL4-3IN-R263K = assay: microbe, parasite or virus in culture; format: cell-based; details: Human immunodeficiency virus 1
HIV-1DRACC017 = assay: microbe, parasite or virus in culture; format: cell-based; details: for EC50: Human immunodeficiency virus 1, HIV-1DRACC017, p24
HIV-1TC-1 (CRF01_AE) = assay: microbe, parasite or virus in culture; details: Human immunodeficiency virus 1, PBMC
[7] = Cytotoxicity MTT assay in MT4 cells; format: cell-based; details: human
HIV-1IIIB [8] = assay: qPCR determination of Late-RT, 2-LTR and Alu-LTR in infected C8166 cells; format: cell-based; details: for Late-RT level versus positive control (PC) group: C8166, HIV-1IIIB MOI 0.5, 100 nM ACC017, 4-8 h; for 2-LTR level (nuclear entry): C8166, HIV-1IIIB MOI 0.5, 100 nM ACC017, 8, 12, 24 h; for Alu-LTR level (integrated provirus): C8166, HIV-1IIIB MOI 0.5, 100 nM ACC017, 24 h, nested PCR
HIV-1WAN (CRF01_AE) = assay: microbe, parasite or virus in culture; details: Human immunodeficiency virus 1, PBMC
HIV-1IIIB [9] = assay: microbe, parasite or virus in culture; details: Human immunodeficiency virus 1, C8166, HIV-1IIIB
HIV-1A17 = assay: microbe, parasite or virus in culture; details: Human immunodeficiency virus 1, C8166
[10] = p24 (Table 4, resistance study)

Question: For `Nc1nc(=O)n([C@@H]2CS[C@H](CO)O2)cc1F` [FTC, Emtricitabine], which “DRI Value ED75” value (HIV-1IIIB [1]; combination ACC017 + FTC + TAF) is on record?
Answer: 7.82

Question: What about the “DRI Value ED90” value (HIV-1IIIB [1]; combination ACC017 + FTC + TAF) of the same molecule?
Answer: 12.57

Question: What about the “DRI Value ED95” value (HIV-1IIIB [1]; combination ACC017 + FTC + TAF) of the same molecule?
Answer: 17.41

Question: And the “DRI Value ED75” value (HIV-1IIIB [1]; combination DTG + FTC + TAF)?
Answer: 7.15

Question: What about the “DRI Value ED90” value (HIV-1IIIB [1]; combination DTG + FTC + TAF) of the same molecule?
Answer: 12.20

Question: What about the “DRI Value ED95” value (HIV-1IIIB [1]; combination DTG + FTC + TAF) of the same molecule?
Answer: 17.77

Question: With `C[C@@H]1CCO[C@H]2Cn3cc(C(=O)NCc4ccc(F)cc4F)c(=O)c(O)c3C(=O)N12` [DTG, Dolutegravir] as the molecule, how does the EC50 (HIV-1KIZ011 (CRF07_BC)) read?
Answer: 0.28 ± 0.03 nM

Question: And the CC50 at 7 d [2]?
Answer: 14600 nM

Question: What about the EC50 (HIV-1IIIB [3]) of the same molecule?
Answer: 0.73 ± 0.02 nM

Question: What about the EC50 (HIV-1_4755-5) of the same molecule?
Answer: 9.96 ± 2.78 nM

Question: And the EC50 (NL4-3)?
Answer: 2.41 ± 0.43 nM

Question: And the EC50 [4]?
Answer: 1.95 ± 0.12 nM

Question: And the EC50 (HIV-1IIIB [5])?
Answer: 0.05144 ± 0.00014 nM

Question: And the CC50 at 3 d [6]?
Answer: 20340 ± 70 nM

Question: What about the EC50 (NL4-3IN-R263K) of the same molecule?
Answer: 32.2 ± 3.74 nM

Question: And the EC50 (HIV-1DRACC017)?
Answer: > 5000 nM

Question: And the EC50 (HIV-1TC-1 (CRF01_AE))?
Answer: 0.31 ± 0.18 nM

Question: And the CC50 at 3 d [7]?
Answer: 24910 ± 10 nM

Question: What about the “DRI Value ED75” value (HIV-1IIIB [1]; combination ACC017 + DTG) of the same molecule?
Answer: 1.40

Question: What about the “DRI Value ED90” value (HIV-1IIIB [1]; combination ACC017 + DTG) of the same molecule?
Answer: 1.40

Question: What about the “DRI Value ED95” value (HIV-1IIIB [1]; combination ACC017 + DTG) of the same molecule?
Answer: 1.60

Question: What about the “DRI Value ED75” value (HIV-1IIIB [1]; combination DTG + 3TC) of the same molecule?
Answer: 3.00

Question: What about the “DRI Value ED90” value (HIV-1IIIB [1]; combination DTG + 3TC) of the same molecule?
Answer: 4.01

Question: What about the “DRI Value ED95” value (HIV-1IIIB [1]; combination DTG + 3TC) of the same molecule?
Answer: 4.98

Question: What about the “DRI Value ED75” value (HIV-1IIIB [1]; combination DTG + ACC007) of the same molecule?
Answer: 3.00

Question: What about the “DRI Value ED90” value (HIV-1IIIB [1]; combination DTG + ACC007) of the same molecule?
Answer: 4.13

Question: What about the “DRI Value ED95” value (HIV-1IIIB [1]; combination DTG + ACC007) of the same molecule?
Answer: 5.21

Question: And the “DRI Value ED75” value (HIV-1IIIB [1]; combination DTG + FTC + TAF)?
Answer: 3.25

Question: What about the “DRI Value ED90” value (HIV-1IIIB [1]; combination DTG + FTC + TAF) of the same molecule?
Answer: 4.37

Question: What about the “DRI Value ED95” value (HIV-1IIIB [1]; combination DTG + FTC + TAF) of the same molecule?
Answer: 5.41

Question: And the “Late-RT level versus positive control (PC) group” value (HIV-1IIIB [8])?
Answer: no significant difference compared with the PC group

Question: What about the “2-LTR level (nuclear entry)” value (HIV-1IIIB [8]) of the same molecule?
Answer: unable to block the nuclear entry process

Question: And the “Alu-LTR level (integrated provirus)” value (HIV-1IIIB [8])?
Answer: significantly reduced

Question: And the EC50 (HIV-1WAN (CRF01_AE))?
Answer: 8.23 ± 0.2 nM

Question: What about the EC50 (HIV-1IIIB [9]; C8166, p24 (Table 1)) of the same molecule?
Answer: 0.64 ± 0.07 nM

Question: What about the EC50 (HIV-1IIIB [9]; C8166, p24, 20% human serum) of the same molecule?
Answer: 33.6 ± 5.9 nM

Question: What about the EC50 (HIV-1IIIB [9]; [10]) of the same molecule?
Answer: 1.18 ± 0.15 nM

Question: What about the EC50 (HIV-1A17) of the same molecule?
Answer: 4.78 ± 5.13 nM

Question: For `CCn1c(C(=O)c2cc(C)cc(C#N)c2)c(C(C)C)c(=O)[nH]c1=O` [ACC007, Ainuovirine], which “DRI Value ED75” value (HIV-1IIIB [1]; combination ACC017 + ACC007) is on record?
Answer: 3.77

Question: And the “DRI Value ED90” value (HIV-1IIIB [1]; combination ACC017 + ACC007)?
Answer: 6.12

Question: And the “DRI Value ED95” value (HIV-1IIIB [1]; combination ACC017 + ACC007)?
Answer: 8.66

Question: What about the “DRI Value ED75” value (HIV-1IIIB [1]; combination DTG + ACC007) of the same molecule?
Answer: 4.66

Question: And the “DRI Value ED90” value (HIV-1IIIB [1]; combination DTG + ACC007)?
Answer: 7.34

Question: What about the “DRI Value ED95” value (HIV-1IIIB [1]; combination DTG + ACC007) of the same molecule?
Answer: 10.16

Question: What does the source list for `O=C1Nc2ccc(Cl)cc2[C@@](C#CC2CC2)(C(F)(F)F)O1` [EFV, Efavirenz]?
Answer: EC50 (NL4-3): 1.51 ± 0.48 nM; EC50 (NL4-3IN-R263K; read-out: EC50): 1.62 ± 0.31 nM; EC50 (HIV-1DRACC017): 1.24 ± 0.22 nM; FC (Fold Change) EC50 (HIV-1DRACC017)/EC50 (HIV-1IIIB) (HIV-1DRACC017; p24): 2.07; Late-RT level versus positive control (PC) group (HIV-1IIIB [8]): significantly lower than that in the PC group; 2-LTR level (nuclear entry) (HIV-1IIIB [8]): barely detected; Alu-LTR level (integrated provirus) (HIV-1IIIB [8]): almost undetectable; EC50 (HIV-1IIIB [9]; [10]): 0.6 ± 0.18 nM
